From patent JP2020514407A, “アポリポプロテイン模倣物を用いる加齢黄斑変性と他の眼疾患の治療” (MacRegen Inc, priority 2017, dated 2018)

Tests used:
[1] = Tolerability and adverse events of intravitreal injection, aged macaques; format: in vivo, cynomolgus macaque (Macaca fascicularis); details: all macaques; 6 monthly intravitreal injections
[2] = system: high-sensitivity C-reactive protein (hsCRP) [高感度C−反応性タンパク質(hsCRP)]; assay: Blood level of high-sensitivity C-reactive protein, aged macaques; format: in vivo, cynomolgus macaque (Macaca fascicularis); details: 6 monthly intravitreal injections
[3] = system: neutral lipid in and on Bruch's membrane [ブルッフ膜内及びブルッフ膜上の中性脂質]; assay: Oil red O (ORO) staining of neutral lipid in and on Bruch's membrane, aged macaques with naturally occurring age-related maculopathy; format: in vivo, cynomolgus macaque (Macaca fascicularis); details: injected eye; 6 monthly intravitreal injections, total 625 μg; after 6 months; vs scrambled L-4F
Bruch's membrane [ブルッフ膜] = assay: Bruch's membrane thickness and integrity by electron microscopy, aged macaques; format: in vivo, cynomolgus macaque (Macaca fascicularis)
[4] = system: complement factor D (CFD) [補体因子D(CFD)]; assay: Immunohistochemistry of complement factor D, aged macaques; format: in vivo, cynomolgus macaque (Macaca fascicularis); details: injected eye; 6 monthly intravitreal injections, total 625 μg; vs scrambled L-4F
[5] = system: fellow non-injected eye [もう片方の非注射側の眼]; assay: Effect in the fellow non-injected eye (staining and thickness, figures 2 to 6), aged macaques; format: in vivo, cynomolgus macaque (Macaca fascicularis); details: after 6 monthly intravitreal injections (figures 2 to 6)
[6] = system: membrane attack complex (MAC, C5b-9) [膜侵襲複合体(MAC、C5b−9)]; assay: Immunohistochemistry of membrane attack complex in Bruch's membrane and choriocapillaris, aged macaques; format: in vivo, cynomolgus macaque (Macaca fascicularis); details: injected eye; 6 monthly intravitreal injections, total 625 μg; vs scrambled L-4F
[7] = system: esterified cholesterol in Bruch's membrane [ブルッフ膜内のエステル型コレステロール]; assay: Filipin fluorescence of esterified cholesterol in Bruch's membrane, aged macaques; format: in vivo, cynomolgus macaque (Macaca fascicularis); details: injected eye; 6 monthly intravitreal injections, total 625 μg; vs scrambled L-4F
[8] = estimated; cited from earlier work
[9] = system: geographic atrophy [地図状萎縮]; details: 10 mg intravitreal once a month, 18 months, cited from earlier work

Ac−DWFKAFYDKVAEKFKEAF−NH2 (Ac-DWFKAFYDKVAEKFKEAF-NH2) [L−4F]
tolerability [1]: 十分耐性があり | change in hsCRP blood level compared with the day before the first injection [2]: hsCRPの血中レベルを増加させなかった | reduction of lipid deposits from Bruch's membrane (oil red O staining) compared with placebo-injected eyes [3]: ~56% | thickness of Bruch's membrane (Bruch's membrane [ブルッフ膜]; L-4F-injected eye, temporal outer macula, post mortem, printed 1.31μm±SE0.11, placebo (scrambled L-4F) 1.73μm±SE0.02): 1.31 μm | Bruch's membrane integrity (Bruch's membrane [ブルッフ膜]; after removal of lipid deposits, confirmed by electron microscopy): BrMの完全性が回復し | reduction of Bruch's membrane thickness compared with placebo-injected eyes (Bruch's membrane [ブルッフ膜]; injected eye, temporal outer macula, vs scrambled L-4F): ~24% | reduction of complement factor D level compared with eyes injected with scrambled peptide [4]: ~41% | effect on the fellow non-injected eye relative to the injected eye [5]: 同様の効果を有していた | reduction of MAC (C5b-9) level in Bruch's membrane and choriocapillaris compared with eyes injected with scrambled peptide [6]: ~58% | reduction of esterified cholesterol in Bruch's membrane (filipin fluorescence, semiquantitative) compared with placebo-injected eyes [7]: ~68%

アフリベルセプト: soluble fusion protein comprising extracellular domains of VEGFR
intravitreal half-life [8]: ~216 h

ベバシズマブ: anti-VEGF antibody or fragment
intravitreal half-life [8]: ~235 h

ラニビズマブ: anti-VEGF antibody or fragment
intravitreal half-life [8]: ~170 h

ランパリズマブ: antigen-binding fragment (Fab) of a humanized monoclonal antibody targeting complement factor D
reduction of geographic atrophy area, CFI biomarker-positive subgroup ([9]; CFI biomarker-positive patients): ~44% | reduction of geographic atrophy area in the injected eye compared with placebo patients ([9]; one eye): ~20%
